Measured values reported in patent US9114077B2, “Nanocrystals for use in topical cosmetic formulations and method of production thereof” (priority 2006, dated 2015).

Experiments:
[1] = format: physicochemical
Experimental: 5% Rutin micro-sized powder was dispersed in water, shaken and subsequently centrifuged at 4,000 rpm and then filtered through a 0.45 μm filter to remove any potential non-dissolved fine crystals. A Rutin nanosuspension was treated the same way but using a 0.2 μm filter.

[2] = tested on: skin of volunteers (UV erythem); assay: photo-protective potential after topical application in vivo (MED for UV erythem, SPF); details: human volunteers, 2 mg/cm^2 once daily on 4 days, UV irradiation day 4, 15 min after application
Excerpt: The Rutin and the Hesperidin nanosuspensions were investigated in vivo regarding their photo-protective potential compared to solutions of a water-soluble Rutin conjugate with saccharide (example 15). Topical application of the anti-oxidants should increase the dose required to generate a UV erythem. The higher the photo-protective effect, the higher will be the increase in the MED for UV erythem generation. Based on the ratio MED of treated area/MED untreated area a sun protection factor can be calculated. […] To very well differentiate in efficiency between the preparations, the formulations were applied only over 4 days (day 1, 2, 3 and 4) and only once a day. […] It has to be noted that the selected concentration of Rutin saccharide was equivalent to 5% Rutin.
Various formulations were investigated regarding their photo-protective potential after topical application in vivo. These formulations contained antioxidants and the photo-protective potential was evaluated by assessing the MED for generating an UV erythem (MED—minimal dose required for generating an erythem, minimal erythem dose). The sun susceptibility of the skin of volunteers was assessed after four times of application (once daily) of the formulations in comparison to untreated skin. Based on this a sun protection factor (SPF) was calculated.
The study was performed as a placebo controlled double blind study. Three male and three female volunteers with normal skin of photo type II to III took part. The medium age of the female volunteers was 49.6±9.8 years (38.8-57.4 years). Topical application of the formulations took place on 4 subsequent days (2 mg/cm^2), once daily. On day 4 eradiation by UV was performed 15 minutes after application of the formulations to the skin using a sun simulator SU6p (m.u.t. GmbH, Wedel/Germany). The sun simulator created 6 single doses with a geometric increment of 25%. The 5 test areas were on the back of the volunteers (4 areas for the formulations, 1 untreated control area).
A sun protection factor was defined as the ratio of the MED of the formulation treated area to the MED of the untreated area.

## C[C@@H]1O[C@@H](OC[C@H]2O[C@@H](Oc3c(-c4ccc(O)c(O)c4)oc4cc(O)cc(O)c4c3=O)[C@H](O)[C@@H](O)[C@@H]2O)[C@H](O)[C@H](O)[C@H]1O [microcrystalline Rutin suspension, Rutin]
[1]
  saturation solubility (concentration of dissolved Rutin in filtrate): 0.0079%

## CC(=O)Oc1c(C)c(C)c2c(c1C)CCC(C)(CCC[C@H](C)CCC[C@H](C)CCCC(C)C)O2 (stereo partly drawn) [α-tocopherol acetate]
[2]
  sun protection factor (SPF) = ratio MED treated area/MED untreated area (partly given as MED): 0.85±0.23
[2]; listed as alpha-tocopherol acetate
  sun protection factor (SPF) = ratio MED treated area/MED untreated area (partly given as MED): 0.85

## α-G Rutin PS
[2]; listed as AGRPS
  sun protection factor (SPF) = ratio MED treated area/MED untreated area (partly given as MED): 1.27±0.31
[2]; listed as Rutin derivative solution
  sun protection factor (SPF) = ratio MED treated area/MED untreated area (partly given as MED): 1.27
[2]; listed as Rutin saccharide
  sun protection factor (SPF) = ratio MED treated area/MED untreated area (partly given as MED): 1.27
